Reference: BigSolDB 2.1

CC(=O)c1ccc(S(C)(=O)=O)cc1
solubility (mole fraction)
Details | in cyclohexane | in ethanol | in ethyl acetate | in ethylene glycol | in isobutanol | in methanol | in n-butanol | in n-hexane | in n-propanol
278.15 K | 0.0049 | 0.0123 | 0.0253 | 0.0179 | 0.0074 | 0.0161 | 0.0087 | 0.003 | 0.0104
283.15 K | 0.0056 | 0.0137 | 0.027 | 0.0194 | 0.0083 | 0.0173 | 0.0096 | 0.0038 | 0.0114
288.15 K | 0.0065 | 0.0154 | 0.0295 | 0.0211 | 0.0094 | 0.019 | 0.0111 | 0.0049 | 0.0129
293.15 K | 0.0079 | 0.0172 | 0.0326 | 0.0238 | 0.0108 | 0.0215 | 0.0125 | 0.0062 | 0.0144
298.15 K | 0.0091 | 0.0197 | 0.0361 | 0.0273 | 0.0124 | 0.0246 | 0.014 | 0.0077 | 0.0162
303.15 K | 0.0109 | 0.0221 | 0.0402 | 0.0307 | 0.0142 | 0.0281 | 0.016 | 0.0099 | 0.0185
308.15 K | 0.0129 | 0.0249 | 0.0446 | 0.035 | 0.016 | 0.0321 | 0.018 | 0.0121 | 0.021
313.15 K | 0.0154 | 0.0283 | 0.0501 | 0.0395 | 0.0186 | 0.0369 | 0.0205 | 0.0146 | 0.0241
318.15 K | 0.0182 | 0.0325 | 0.0565 | 0.045 | 0.0211 | 0.0421 | 0.0234 | 0.0171 | 0.0273
323.15 K | 0.0217 | 0.0381 | 0.0639 | 0.0507 | 0.0246 | 0.0481 | 0.0271 | 0.0204 | 0.0318
328.15 K | 0.0255 | 0.0441 | 0.0745 | 0.0597 | 0.0284 | 0.0568 | 0.0315 | 0.0241 | 0.0365
